In one data set the test system is Tumor cells (A549). Put plainly: MTT cell viability assay, compounds at 5, 1 and 0.2 μM, 48 hours. The data set is classed as cell-based. The method, boiled down:
(§1)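 A549 cells were seeded at 2500/well in DMEM + 10% FBS, grown overnight, then exposed to compound for 48 h. Viability was read by MTT (5 mg/ml, 4 h), with formazan dissolved in DMSO and absorbance measured at 560/570 nm to give survival rate.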

Assay in data set [1]: as above
The data set is classed as cell-based. To be noted: human, A549 tumor cells. In a few lines: as §1

Some results are limits rather than exact numbers.

In the case of `Cc1cc(Oc2cccc(-c3nnc(Nc4cccc(C(F)(F)F)c4)[nH]3)c2)nc(N)n1` [Compound 95], the “% Viability A549” value was “+++ (+++: >70%)” with Tumor cells (A549) (0.2 μM), “+++ (+++: >70%)” with Tumor cells (A549) (1 μM) and “++ (++: 50-70%)” with Tumor cells (A549) (5 μM).
In turn, `Cc1cc(Oc2cccc(-c3nnc(Nc4cccc(C(F)(F)F)c4)[nH]3)c2)c2ccccc2n1` [Compound 168] gave a viability at 48 h, 0.2 µM in data set [1] (0.2 μM) above 70%. The same compound showed a viability at 48 h, 1 µM in data set [1] (1 μM) above 70%. For the same compound, the viability at 48 h, 5 µM in data set [1] (5 μM) was 50 to 70%.
Consider `FC(F)(F)c1cccc(Nc2nnc(-c3cccc(Oc4cc(C(F)(F)F)nc5ccccc45)c3)[nH]2)c1` [Compound 169], for which the viability at 48 h, 0.2 µM in data set [1] (0.2 μM) was above 70%. This compound came in with a viability at 48 h, 1 µM in data set [1] (1 μM) above 70%. In addition, the viability at 48 h, 5 µM in data set [1] (5 μM) was above 70%.
With `COc1cc2ncnc(Oc3cccc(-c4nnc(Nc5cccc(C(F)(F)F)c5)[nH]4)c3)c2cc1OC` [Compound 170], the viability at 48 h, 0.2 µM in data set [1] (0.2 μM) is above 70%. Moreover, in data set [1] (1 μM), the viability at 48 h, 1 µM is above 70%. Also, in data set [1] (5 μM), the viability at 48 h, 5 µM is above 70%.
`O=c1cc(COc2cccc(-c3nnc(Nc4cccc(C(F)(F)F)c4)[nH]3)c2)c2ccccc2[nH]1` [Compound 171] displayed a viability at 48 h, 0.2 µM in data set [1] (0.2 μM) above 70%. In data set [1] (1 μM), this compound came in with a viability at 48 h, 1 µM above 70%. This compound also came in with a viability at 48 h, 5 µM in data set [1] (5 μM) above 70%.
The compound `Cc1ccc2nccc(Oc3cccc(-c4nnc(Nc5cccc(C(F)(F)F)c5)[nH]4)c3)c2c1` [Compound 172] returned a viability at 48 h, 0.2 µM in data set [1] (0.2 μM) above 70%. Besides, the viability at 48 h, 1 µM in data set [1] (1 μM) is above 70%. For the same compound, in data set [1] (5 μM), the viability at 48 h, 5 µM was 50 to 70%.
Consider `FC(F)(F)Oc1ccc2c(Oc3cccc(-c4nnc(Nc5cccc(C(F)(F)F)c5)[nH]4)c3)ccnc2c1` [Compound 173], for which the viability at 48 h, 0.2 µM in data set [1] (0.2 μM) is above 70%. In data set [1] (1 μM), the viability at 48 h, 1 µM is above 70%. This compound also showed a viability at 48 h, 5 µM in data set [1] (5 μM) above 70%.
In data set [1] (0.2 μM), `FC(F)(F)c1cccc(-c2nnc(Nc3ccc(Oc4cccnc4)cc3)[nH]2)c1` [Compound 174] returned a viability at 48 h, 0.2 µM above 70%. In addition, the viability at 48 h, 1 µM in data set [1] (1 μM) was above 70%. In data set [1] (5 μM), this compound yielded a viability at 48 h, 5 µM above 70%.
Compound `COc1ccc2c(Oc3ccc(Nc4nnc(-c5cccc(C(F)(F)F)c5)[nH]4)cc3)ccnc2c1` [Compound 175] displayed a viability at 48 h, 0.2 µM in data set [1] (0.2 μM) above 70%. Further, the viability at 48 h, 1 µM in data set [1] (1 μM) was above 70%. The same compound showed a viability at 48 h, 5 µM in data set [1] (5 μM) above 70%.
For `CSc1nc(N)cc(Oc2ccc(Nc3nnc(-c4cccc(C(F)(F)F)c4)[nH]3)cc2)n1` [Compound 176], the viability at 48 h, 0.2 µM in data set [1] (0.2 μM) is above 70%. The compound further yielded a viability at 48 h, 1 µM in data set [1] (1 μM) above 70%. Also, in data set [1] (5 μM), the viability at 48 h, 5 µM is above 70%.
The compound `Cc1ccc(-c2nnc(Nc3cccc(C(F)(F)F)c3)[nH]2)cc1Oc1cccnc1` [Compound 177] registered a viability at 48 h, 0.2 µM in data set [1] (0.2 μM) above 70%. Moreover, the viability at 48 h, 1 µM in data set [1] (1 μM) is above 70%. In data set [1] (5 μM), this compound gave a viability at 48 h, 5 µM above 70%.
As for `Cc1ccc(-c2nnc(Nc3cccc(C(F)(F)F)c3)[nH]2)cc1Oc1ccncc1` [Compound 178], the viability at 48 h, 0.2 µM in data set [1] (0.2 μM) was in the range of 50 to 70%. Moreover, the viability at 48 h, 1 µM in data set [1] (1 μM) was below 50%. Moreover, in data set [1] (5 μM), the viability at 48 h, 5 µM was below 50%.
With `CSc1nc(N)cc(Oc2cc(-c3nnc(Nc4cccc(C(F)(F)F)c4)[nH]3)ccc2C)n1` [Compound 179], in data set [1] (0.2 μM), the viability at 48 h, 0.2 µM was above 70%. Also, the viability at 48 h, 1 µM in data set [1] (1 μM) was above 70%. The same compound gave a viability at 48 h, 5 µM in data set [1] (5 μM) of 50 to 70%.
Turning to `CSc1nc(N)cc(Oc2ccc(Nc3nnc(-c4cccc(Cl)c4)[nH]3)cc2)n1` [Compound 180], the viability at 48 h, 0.2 µM in data set [1] (0.2 μM) was above 70%. Moreover, the viability at 48 h, 1 µM in data set [1] (1 μM) was above 70%. Besides, the viability at 48 h, 5 µM in data set [1] (5 μM) was 50 to 70%.
In turn, `Oc1ccc(Nc2nnc(-c3cccc(C(F)(F)F)c3)[nH]2)cc1` [Compound 181] displayed a viability at 48 h, 0.2 µM in data set [1] (0.2 μM) above 70%. Besides, in data set [1] (1 μM), the viability at 48 h, 1 µM is above 70%. Also, the viability at 48 h, 5 µM in data set [1] (5 μM) is above 70%.
Regarding `Oc1ccc(Nc2nnc(-c3cccc(Cl)c3)[nH]2)cc1` [Compound 182], the viability at 48 h, 0.2 µM in data set [1] (0.2 μM) was above 70%. Further, the viability at 48 h, 1 µM in data set [1] (1 μM) is above 70%. The compound further had a viability at 48 h, 5 µM in data set [1] (5 μM) above 70%.
With `COc1ccc(Nc2nnc(-c3cccc(C(F)(F)F)c3)[nH]2)cc1` [Compound 183], the viability at 48 h, 0.2 µM in data set [1] (0.2 μM) was above 70%. For the same compound, in data set [1] (1 μM), the viability at 48 h, 1 µM is above 70%. Besides, the viability at 48 h, 5 µM in data set [1] (5 μM) is above 70%.
In the case of `COc1ccc2nccc(Oc3ccc(-c4nnc(Nc5cccc(C(F)(F)F)c5)[nH]4)cc3)c2c1` [Compound 185], in data set [1] (0.2 μM), the viability at 48 h, 0.2 µM is above 70%. In addition, in data set [1] (1 μM), the viability at 48 h, 1 µM is above 70%. Besides, the viability at 48 h, 5 µM in data set [1] (5 μM) is above 70%.
With `Fc1ccc2c(Oc3ccc(-c4nnc(Nc5cccc(C(F)(F)F)c5)[nH]4)cc3)ccnc2c1` [Compound 186], the viability at 48 h, 0.2 µM in data set [1] (0.2 μM) was above 70%. The compound further had a viability at 48 h, 1 µM in data set [1] (1 μM) above 70%. The viability at 48 h, 5 µM in data set [1] (5 μM) is above 70%.
Regarding `FC(F)(F)c1cccc(Nc2nnc(-c3ccc(Oc4ccnc5cc(OCc6ccccc6)ccc45)cc3)[nH]2)c1` [Compound 187], the viability at 48 h, 0.2 µM in data set [1] (0.2 μM) is above 70%. The viability at 48 h, 1 µM in data set [1] (1 μM) is above 70%. For the same compound, the viability at 48 h, 5 µM in data set [1] (5 μM) is above 70%.
In data set [1] (0.2 μM), `COc1ccc2c(Oc3ccc(-c4nnc(Nc5cccc(C(F)(F)F)c5)[nH]4)cc3)cc(C)nc2c1` [Compound 188] gave a viability at 48 h, 0.2 µM above 70%. Besides, the viability at 48 h, 1 µM in data set [1] (1 μM) was above 70%. Moreover, in data set [1] (5 μM), the viability at 48 h, 5 µM is above 70%.
In the case of `N#Cc1ccc2c(Oc3ccc(-c4nnc(Nc5cccc(C(F)(F)F)c5)[nH]4)cc3)ccnc2c1` [Compound 189], the viability at 48 h, 0.2 µM in data set [1] (0.2 μM) was above 70%. Besides, in data set [1] (1 μM), the viability at 48 h, 1 µM is above 70%. For the same compound, in data set [1] (5 μM), the viability at 48 h, 5 µM is above 70%.
The compound `CN(C)c1cc(Oc2ccc(-c3nnc(Nc4cccc(C(F)(F)F)c4)[nH]3)cc2)c2ccccc2n1` [Compound 190] had a viability at 48 h, 0.2 µM in data set [1] (0.2 μM) above 70%. Besides, the viability at 48 h, 1 µM in data set [1] (1 μM) was above 70%. The viability at 48 h, 5 µM in data set [1] (5 μM) was in the range of 50 to 70%.
For the compound `COc1ccc2nccc(Oc3cccc(-c4nnc(Nc5cccc(C(F)(F)F)c5)[nH]4)c3)c2c1` [Compound 191], the viability at 48 h, 0.2 µM in data set [1] (0.2 μM) is above 70%. The compound further came in with a viability at 48 h, 1 µM in data set [1] (1 μM) above 70%. The compound further returned a viability at 48 h, 5 µM in data set [1] (5 μM) above 70%.
Turning to `Fc1ccc2c(Oc3cccc(-c4nnc(Nc5cccc(C(F)(F)F)c5)[nH]4)c3)ccnc2c1` [Compound 192], the viability at 48 h, 0.2 µM in data set [1] (0.2 μM) was above 70%. For the same compound, the viability at 48 h, 1 µM in data set [1] (1 μM) was above 70%. The compound further displayed a viability at 48 h, 5 µM in data set [1] (5 μM) above 70%.
Take `FC(F)(F)c1cccc(Nc2nnc(-c3cccc(Oc4ccnc5cc(OCc6ccccc6)ccc45)c3)[nH]2)c1` [Compound 193]: the viability at 48 h, 0.2 µM in data set [1] (0.2 μM) was above 70%. Further, the viability at 48 h, 1 µM in data set [1] (1 μM) is above 70%. In addition, the viability at 48 h, 5 µM in data set [1] (5 μM) was above 70%.
The compound `COc1ccc2c(Oc3cccc(-c4nnc(Nc5cccc(C(F)(F)F)c5)[nH]4)c3)cc(C)nc2c1` [Compound 194] returned a viability at 48 h, 0.2 µM in data set [1] (0.2 μM) above 70%. The same compound returned a viability at 48 h, 1 µM in data set [1] (1 μM) above 70%. Besides, the viability at 48 h, 5 µM in data set [1] (5 μM) was above 70%.
As to `CN(C)c1cc(Oc2ccc(-c3nnc(Nc4cccc(C(F)(F)F)c4)[nH]3)cc2)c2ccccc2n1` [Compound 196], in data set [1] (0.2 μM compound), the viability at 48 h, 0.2 µM was above 70%. Further, the viability at 48 h, 1 µM in data set [1] (1 μM compound) was above 70%. In addition, the viability at 48 h, 5 µM in data set [1] (5 μM compound) fell in the range of 50 to 70%.
On to `COc1ccc2c(Oc3cc(-c4nnc(Nc5cccc(C(F)(F)F)c5)[nH]4)ccc3C)ccnc2c1` [Compound 197], for which the viability at 48 h, 0.2 µM in data set [1] (0.2 μM compound) is above 70%. Besides, in data set [1] (1 μM compound), the viability at 48 h, 1 µM was above 70%. The same compound had a viability at 48 h, 5 µM in data set [1] (5 μM compound) above 70%.
`COc1ccc2c(Oc3ccc(Nc4nnc(-c5cccc(Cl)c5)[nH]4)cc3)ccnc2c1` [Compound 198] showed a viability at 48 h, 0.2 µM in data set [1] (0.2 μM compound) above 70%. The compound also displayed a viability at 48 h, 1 µM in data set [1] (1 μM compound) above 70%. In data set [1] (5 μM compound), the viability at 48 h, 5 µM was above 70%.
`CSc1nc(N)cc(Oc2ccc(-c3cnc(Nc4cccc(C(F)(F)F)c4)[nH]3)cc2)n1` [Compound 199] came in with a viability at 48 h, 0.2 µM in data set [1] (0.2 μM compound) below 50%. In data set [1] (1 μM compound), the viability at 48 h, 1 µM was below 50%. Further, the viability at 48 h, 5 µM in data set [1] (5 μM compound) is below 50%.
Compound `COc1ccc2c(Oc3ccc(-c4cnc(Nc5cccc(C(F)(F)F)c5)[nH]4)cc3)ccnc2c1` [Compound 200] yielded a viability at 48 h, 0.2 µM in data set [1] (0.2 μM compound) above 70%. The same compound returned a viability at 48 h, 1 µM in data set [1] (1 μM compound) above 70%. In addition, the viability at 48 h, 5 µM in data set [1] (5 μM compound) was above 70%.
